Assays:
Type in all cases: in vivo
[1] = tested on: ddY mice; assay: Blood sugar level of ddY mouse by administration of corosolic acid; conditions: ddY normal mice, oral administration, 2, 4, and 7 hours after the administration
Method: KK-Ay mice (CLEA JAPAN, INC.) which are the model animals for Type II diabetes were employed for test animals. These KK-Ay mice aged 6 to 10 weeks, having 300 mg/dL of blood sugar level. Corosolic acid which was extracted from Banaba leaves and purified was forcefully administrated to these KK-Ay mice using an injection syringe and an oral sound for mouse. Blood samples were collected at 2, 4 and 7 hours after the administration using the orbital vein blood sampling method, and the blood sugar levels were determined by the glucose oxidase method. Blood sugar levels were measured on four KK-Ay mice. The measured values were used to calculate an average, which was evaluated by the Student's t-test. […] FIG. 1 describes the blood sugar level data as average value± standard error. The p-value of 0.05 or below in the Student's t-test was rated to be significant (the significance is shown with * mark in the Figure: the same is applied hereinafter). Blood sugar level was determined by the same procedure as described in the above “Blood sugar level in KK-Ay mouse by administration of corosolic acid”, except that the ddY mice which are the normal mice (Japan SLC, Inc.) were employed instead of the KK-Ay mice which are the model animals for Type II diabetes.

[2] = tested on: KK-Ay mice; assay: Serum insulin value in KK-Ay mouse with administration of corosolic acid; conditions: after 4 hours from the administration, vs group without corosolic acid
Method: On the KK-Ay mouse groups with or without corosolic acid administrated in “Blood sugar level in KK-Ay mouse by administration of corosolic acid” described above, the serum insulin values were measured after 4 hours from the administration. The serum insulin values were measured by the enzyme 2-antibody method. The measured data were rated by the Student's t-test to determine whether or not they had significant differences according to the same criterion as above.

[3] = tested on: KK-Ay mice; assay: Blood sugar level in KK-Ay mouse with administration of corosolic acid; conditions: oral administration
Method: KK-Ay mice (CLEA JAPAN, INC.) which are the model animals for Type II diabetes were employed for test animals. These KK-Ay mice aged 6 to 10 weeks, having 300 mg/dL of blood sugar level. Corosolic acid which was extracted from Banaba leaves and purified was forcefully administrated to these KK-Ay mice using an injection syringe and an oral sound for mouse. Blood samples were collected at 2, 4 and 7 hours after the administration using the orbital vein blood sampling method, and the blood sugar levels were determined by the glucose oxidase method. Blood sugar levels were measured on four KK-Ay mice. The measured values were used to calculate an average, which was evaluated by the Student's t-test. […] FIG. 1 describes the blood sugar level data as average value± standard error. The p-value of 0.05 or below in the Student's t-test was rated to be significant (the significance is shown with * mark in the Figure: the same is applied hereinafter).

[4] = tested on: glucose transporter type 4 (GLUT4); assay: Effect of corosolic acid on GLUT4 in mouse skeletal muscle (western blotting of PM and LDM fractions); conditions: KK-Ay mice, after 4 hours from the administration
Method: The intake of sugar into cells is conducted by a carrier protein in the transporting system on cell membrane, called glucose transporter (GLUT). Muscle has glucose transporter type 1 (GLUT1) and glucose transporter type 4 (GLUT4). […] This change in location within a cell is called GLUT4 translocation. It is speculated that significant increase of glucose in muscle and fat tissues is mainly due to the translocation of GLUT4. In view of this point, the effect of corosolic acid on GLUT4 was studied. First, the low density microsome (LDM) fraction and the plasma membrane (PM) fraction were prepared using the sucrose concentration gradient in accordance with the method of Klip et al. (FEBS Lett., 224, 224-230 (1987), Biochem. Biophys. Res. Commum., 172, 728-736 (1990)). On the KK-Ay mouse groups with or without corosolic acid administrated, the relative quantities of GLUT4 in the PM fraction and the LDM fraction were determined after 4 hours from the administration using the western blotting analysis.

C[C@H]1[C@H](C)CC[C@]2(C(=O)O)CC[C@]3(C)C(=CC[C@@H]4[C@@]5(C)C[C@@H](O)[C@H](O)C(C)(C)[C@@H]5CC[C@]43C)[C@H]12 [corosolic acid] was tested, and the “change in blood sugar level” value [1] was “No significant difference”, the serum insulin value [2] was “no significant difference” and the blood sugar level ([3]; after 4 hours from the administration) was “about 280 mg/dL”. For the same molecule, the “change in blood sugar level” value ([3]; during 4 hours after the administration, vs control, Student's t-test) was “significantly decreases”, the “relative quantity of GLUT4 in the LDM fraction” value [4] was “decreased the GLUT4 of low density microsome” and the “relative quantity of GLUT4 in the PM fraction” value [4] was “increased it in the plasma membrane fraction”.

Reference: patent publication US20060193895A1, “Additive for food and beverage, pharmaceutical composition, GLUT4 translocator, and method for translocating GLUT4” (Use-Techno Corporation, priority 2005, published 2006)
